Measured values published in patent US20240067655A1 (NEURON23, INC., priority 2020, published 2024).

Biological target: T1, wt human LRRK2, catalytic site (Homo sapiens, UniProt Q5S007)
T1 construct: wt human LRRK2, catalytic site; purchased ThermoFisher/USA
Assay: TR-FRET LanthaScreen Tb Kinase Activity Assay (Example 71)
Type: biochemical
Conditions: compounds of Table 4, 38 uM ATP, method names only wt human LRRK2, read-out: IC50, Inhibitory Activity Toward LRRK2 (Wt) and LRRK2 (G2019)
Protocol: The compounds in Table 4 were tested for their inhibitory effect on LRRK2 kinases according to the following procedures.
The basic protocol for TR-FRET LanthaScreen Tb Kinase Activity Assay inhibitor studies were performed as follows. LanthaScreen Kinase Activity Assays (ThermoFisher/USA) to evaluate inhibitors were performed by addition of 100 nl of test compound in corresponding DMSO dilutions/5 μl of kinase/fluorescein-ERM(LRRKtide) peptide mixture, 5 μl of ATP into 384 well small volume plates. After incubation for 120 minutes at room temperature, the detection reagents containing Tb-anti-pLRRKtide antibody were added to monitor phosphrylation level of peptide. Then, after 60 min minutes incubation at room temperature plates were read in Envision. Data analysis of emission ratios was according to LanthaScreen Tb Kinase Activity Assay protocol.
Kinase and assay components were adjusted to final concentrations according to the kit protocol. For LRRK2: 2 nM wt human LRRK2, catalytic site, catalytic site (ThermoFisher/USA), 400 nM peptide, 38 uM ATP in 1× Kinase Buffer A.
Basic protocol for TR-FRET LanthaScreen Tb Kinase Activity Assay inhibitor studies involved two steps:
Enzymatic step: Addition of 100 nl of test compound in corresponding DMSO dilutions, 5 μl of kinase/substrate mixture, 5 μl of ATP into 384 well small volume plates. Incubation for 120 minutes at room temperature.
Detection step: Addition of 10 μl EDTA & antibody, read plate after 60 minutes. Data analysis of emission ratios according to KinEASE assay protocol.

T1 sequence (Q5S007 1879-2138 limits assumed): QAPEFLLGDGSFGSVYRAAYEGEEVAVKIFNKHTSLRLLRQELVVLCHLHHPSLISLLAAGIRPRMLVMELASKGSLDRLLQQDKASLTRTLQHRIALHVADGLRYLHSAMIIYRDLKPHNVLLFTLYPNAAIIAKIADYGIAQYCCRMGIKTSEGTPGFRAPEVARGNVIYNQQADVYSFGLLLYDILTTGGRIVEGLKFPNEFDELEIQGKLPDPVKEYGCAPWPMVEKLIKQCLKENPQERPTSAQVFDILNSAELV

Row | IC50 [nM] | SMILES
1 | 10 to 100 | C[C@@H]1CCN2C(c3c(F)cccc3F)=Nc3cn[nH]c3-c3cnn1c32 (single isomer, unassigned) [Compound 346]
2 | < 10 | C[C@H]1CCN2C(c3c(F)cccc3F)=Nc3cn[nH]c3-c3cnn1c32 (single isomer, unassigned) [Compound 347]
3 | < 10 | C[C@@H]1CN2C(c3c(F)cccc3F)=Nc3cn[nH]c3-c3cnn(c32)C1 (single isomer, unassigned) [Compound 349]
4 | 10 to 100 | C[C@H]1CN2C(c3c(F)cccc3F)=Nc3cn[nH]c3-c3cnn(c32)C1 (single isomer, unassigned) [Compound 350]
5 | < 10 | Cc1cccc(F)c1C1=Nc2cn[nH]c2-c2cnn3c2N1CCC3 [Compound 340, 9-(2-fluoro-6-methylphenyl)-3,6,7,8-tetrahydro-2,3,5,5a,8a,10 hexaazabenzo[cd]cyclopenta[h]azulene]
6 | < 10 | Fc1cccc(Cl)c1C1=Nc2cn[nH]c2-c2cnn3c2N1CCC3 [Compound 341, 9-(2-chloro-6-fluorophenyl)-3,6,7,8-tetrahydro-2,3,5,5a,8a,10-hexaazabenzo[cd]cyclopenta[h]azulene]
7 | 10 to 100 | Clc1cccc(Cl)c1C1=Nc2cn[nH]c2-c2cnn3c2N1CCC3 [Compound 342, 9-(2,6-dichlorophenyl)-3,6,7,8-tetrahydro-2,3,5,5a,8a,10-hexaazabenzo[cd]cyclopenta[h]azulene]
8 | < 10 | Cc1cc(F)c(C2=Nc3cn[nH]c3-c3cnn4c3N2CCC4)c(F)c1 [Compound 343, 9-(2,6-difluoro-4-methylphenyl)-3,6,7,8-tetrahydro-2,3,5,5a,8a,10 hexaazabenzo[cd]cyclopenta[h]azulene]
9 | 10 to 100 | Fc1cccc(F)c1C1=Nc2cn[nH]c2-c2cnn3c2N1CCCC3 [Compound 344, 10-(2,6-difluorophenyl)-6,7,8,9-tetrahydro-3H-2,3,5,5a,9a,11-hexaazadicyclopenta[b,kl]heptalene]
10 | < 10 | CC1CCN2C(c3c(F)cccc3F)=Nc3cn[nH]c3-c3cnn1c32 (stereo not drawn) [Compound 345, 9-(2,6-difluorophenyl)-6-methyl-3,6,7,8-tetrahydro-2,3,5,5a,8a,10-hexaazabenzo[cd]cyclopenta[h]azulene]
11 | < 10 | CC1CN2C(c3c(F)cccc3F)=Nc3cn[nH]c3-c3cnn(c32)C1 (stereo not drawn) [Compound 348, 9-(2,6-difluorophenyl)-7-methyl-2,6,7,8-tetrahydro-2,3,5,5a,8a,10-hexaazabenzo[cd]cyclopenta[h]azulene]
12 | 10 to 100 | CC1CCn2ncc3c2N1C(c1c(F)cccc1F)=Nc1cn[nH]c1-3 (stereo not drawn) [Compound 351, 9-(2,6-difluorophenyl)-8-methyl-3,6,7,8-tetrahydro-2,3,5,5a,8a,10-hexaazabenzo[cd]cyclopenta[h]azulene]
13 | > 1000 | Cc1nc2c3n1CCCN3C(c1c(F)cccc1F)=Nc1cn[nH]c1-2 [Compound 352]
14 | < 10 | Fc1ccc(Br)c(F)c1C1=Nc2cn[nH]c2-c2cnn3c2N1CCC3 [Compound 353, 9-(3-bromo-2,6-difluorophenyl)-3,6,7,8-tetrahydro-2,3,5,5a,8a,10-hexaazabenzo[cd]cyclopenta[h]azulene]
15 | < 10 | Cc1ccc(F)c(C2=Nc3cn[nH]c3-c3cnn4c3N2CCC4)c1F [Compound 354, 9-(2,6-difluoro-3-methylphenyl)-3,6,7,8-tetrahydro-2,3,5,5a,8a,10 Hexaazabenzo[cd]cyclopenta[h]azulene]
16 | < 10 | Fc1ccc(Br)c(Cl)c1C1=Nc2cn[nH]c2-c2cnn3c2N1CCC3 [Compound 355, 8-(3-bromo-2-chloro-6-fluoro-phenyl)-3,4,7,9,13,14-hexazatetracyclo-[7.6.1.02,6.013,16]hexadeca-1(16),2(6),4,7,14-pentaene]
17 | 10 to 100 | Fc1cccc(C2CC2)c1C1=Nc2cn[nH]c2-c2cnn3c2N1CCC3 [Compound 356, 9-(2-cyclopropyl-6-fluorophenyl)-3,6,7,8-tetrahydro-2,3,5,5a,8a,10-hexaazabenzo[cd]cyclopenta[h]azulene]
18 | 10 to 100 | N#Cc1cc(F)c(C2=Nc3cn[nH]c3-c3cnn4c3N2CCC4)c(F)c1 [Compound 358]

Row | IC50 [nM] | SMILES
19 | 10 to 100 | OCc1cc(F)c(C2=Nc3cn[nH]c3-c3cnn4c3N2CCC4)c(F)c1 [Compound 359, (3,5-difluoro-4-(3,6,7,8-tetrahydro-2,3,5,5a,8a,10-hexaazabenzo[cd]cyclopenta[h]azulen-9-yl)phenyl)methanol]
20 | 10 to 100 | COc1cc(F)c(C2=Nc3cn[nH]c3-c3cnn4c3N2CCC4)c(F)c1 [Compound 360, 8-(2,6-difluoro-4-methoxy-phenyl)-3,4,7,9,13,14-hexazatetracyclo[7.6.1.02,6.013,16]hexadeca-1(16),2(6),4,7,14-pentaene]
21 | 10 to 100 | c1ccc(C2=Nc3cn[nH]c3-c3cnn4c3N2CCC4)cc1 [Compound 361, 8-phenyl-3,4,7,9,13,14-hexazatetracyclo[7.6.1.02,6.013,16]hexadeca-1(16),2(6),4,7,14-pentaene]
22 | 10 to 100 | Fc1ccccc1C1=Nc2cn[nH]c2-c2cnn3c2N1CCC3 [Compound 362, 9-(2-fluorophenyl)-3,6,7,8-tetrahydro-2,3,5,5a,8a,10-hexaazabenzo[cd]cyclopenta[h]azulene]
23 | 100 to 1000 | Fc1ccccc1C1=Nc2cn[nH]c2-c2cnn3c2N1CCCC3 [Compound 363, 10-(2-fluorophenyl)-6,7,8,9-tetrahydro-3H-2,3,5,5a,9a,11-hexaazadicyclopenta[b,kl]heptalene]
24 | 100 to 1000 | Clc1ccccc1C1=Nc2cn[nH]c2-c2cnn3c2N1CCCC3 [Compound 364, 10-(2-chlorophenyl)-6,7,8,9-tetrahydro-3H-2,3,5,5a,9a,11-hexaazadicyclopenta[b,kl]heptalene]
25 | > 1000 | Fc1cccnc1C1=Nc2cn[nH]c2-c2cnn3c2N1CCCC3 [Compound 365, 10-(3-fluoropyridin-2-yl)-6,7,8,9-tetrahydro-3H-2,3,5,5a,9a,11-hexaazadicyclopenta[b,kl]heptalene]
26 | 100 to 1000 | Cc1nn2c3c1-c1[nH]ncc1N=C(c1c(F)cccc1F)N3CCC2 [Compound 366, 9-(2,6-difluorophenyl)-4-methyl-3,6,7,8-tetrahydro-2,3,5,5a,8a,10-hexaazabenzo[cd]cyclopenta[h]azulene]
27 | 10 to 100 | Fc1ccc(F)c(C2=Nc3cn[nH]c3-c3cnn4c3N2CCC4)c1F [Compound 367, 8-(2,3,6-trifluorophenyl)-3,4,7,9,13,14-hexazatetracyclo[7.6.1.02,6.013,16]hexadeca-1(16),2(6),4,7,14-pentaene]
28 | < 10 | Fc1ccc(Cl)c(F)c1C1=Nc2cn[nH]c2-c2cnn3c2N1CCC3 [Compound 368, 8-(3-chloro-2,6-difluoro-phenyl)-3,4,7,9,13,14-hexazatetracyclo[7.6.1.02,6.013,16]hexadeca-1(16),2(6),4,7,14-pentaene]
29 | 100 to 1000 | Fc1cccc(F)c1C1=Nc2cn[nH]c2-n2ncc3c2N1CCC3 [Compound 369, 9-(2,6-difluorophenyl)-3,6,7,8-tetrahydro-2,3,3b,4,8a,10-hexaazabenzo[cd]cyclopenta[h]azulene]
30 | < 10 | Cc1n[nH]c2c1N=C(c1c(F)cccc1F)N1CCCn3ncc-2c31 [Compound 370, 9-(2,6-difluorophenyl)-1-methyl-3,6,7,8-tetrahydro-2,3,5,5a,8a,10-hexaazabenzo[cd]cyclopenta[h]azulene]
31 | < 10 | Fc1cccc(F)c1C1=Nc2c(Cl)n[nH]c2-c2cnn3c2N1CCC3 [Compound 371, 5-chloro-8-(2,6-difluorophenyl)-3,4,7,9,13,14-hexazatetracyclo[7.6.1.02,6.013,16]hexadeca-1(16),2(6),4,7,14-pentaene]
32 | < 10 | Cc1n[nH]c2c1N=C(c1c(F)cccc1F)N1CCn3ncc-2c31 [Compound 372, 8-(2,6-difluorophenyl)-5-methyl-3,4,7,9,12,13-hexazatetrahydro[7.5.1.02,6.012,15]pentadeca-1(15),2,5,7,13-pentaene]
33 | < 10 | Fc1cccc(F)c1C1=Nc2cn[nH]c2-c2cnn3c2N1CC3 [Compound 373, 3-(2,6-difluorophenyl)-2,7-dihydro-1H-2a,4,6,7,9,9a-hexaazadicyclopenta[cd,f]azulene]
34 | 100 to 1000 | Cc1nn2c3c1CCCN3C(c1c(F)cccc1F)=Nc1cn[nH]c1-2 [Compound 374, 8-(2,6-difluorophenyl)-14-methyl-1,3,4,7,9,15-hexazatetracyclo[7.6.1.02,6.013,16]hexadeca-2(6),4,7,13(16),14-pentaene]
35 | < 10 | Fc1cccc(F)c1C1=Nc2c(Cl)n[nH]c2-c2cnn3c2N1CC3 [Compound 375, 5-chloro-3-(2,6-difluorophenyl)-2,7-dihydro-1H-2a,4,6,7,9,9a-hexaazadicyclopenta[cd,f]azulene]
36 | 10 to 100 | Fc1cncc(F)c1C1=Nc2cn[nH]c2-c2cnn3c2N1CCC3 [Compound 376, 8-(3,5-difluoro-4-pyridyl)-3,4,7,9,13,14-hexazatetracyclo[7.6.1.02,6.013,16]hexadeca-1(16),2(6),4,7,14-pentaene]
